Data taken from BindingDB's records for doi:10.1021/acsmedchemlett.0c00626 (Pipeline Therapeutics, 2021).

Target: T1, Muscarinic acetylcholine receptor M1 (Homo sapiens, UniProt P11229)
T1 sequence (P11229 whole entry): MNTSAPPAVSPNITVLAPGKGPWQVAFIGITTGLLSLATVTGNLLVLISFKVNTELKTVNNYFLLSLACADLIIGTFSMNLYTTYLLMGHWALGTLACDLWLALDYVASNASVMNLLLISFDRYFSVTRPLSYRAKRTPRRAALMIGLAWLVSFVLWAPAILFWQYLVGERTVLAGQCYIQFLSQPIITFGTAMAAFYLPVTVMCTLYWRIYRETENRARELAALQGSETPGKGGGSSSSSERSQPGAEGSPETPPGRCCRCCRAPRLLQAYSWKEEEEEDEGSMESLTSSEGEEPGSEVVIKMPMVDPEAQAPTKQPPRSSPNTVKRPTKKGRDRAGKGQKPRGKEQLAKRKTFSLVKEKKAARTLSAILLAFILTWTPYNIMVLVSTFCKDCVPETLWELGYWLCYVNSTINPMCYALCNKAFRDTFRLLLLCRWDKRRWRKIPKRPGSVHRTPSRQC
Experiment: Antagonist activity at human recombinant muscarinic receptor M1 expressed in CHO-K1 cells assessed as EC80 acetylcholine-induced calcium flux incubated for 30 mins

Compound | IC50 [nM]
Cc1cc(F)cnc1N1CCN(C(=O)CCS(=O)(=O)c2cccc3ncsc23)[C@@H](C)C1 | 79.4
N#Cc1ccc(N2C3CCC2CN(C(=O)CCS(=O)(=O)c2cccc4ncsc24)C3)nc1 | 1.6
N#Cc1cnccc1N1CCN(C(=O)CCCc2cccc3ncccc23)CC1 | 1250
N#Cc1ccc(N2CC3CCC2CN3C(=O)CCS(=O)(=O)c2cccc3ncsc23)nc1 (stereo not given) | 32
Cc1cc(F)cnc1N1CCN(C(=O)COCc2cccc3ncsc23)[C@@H](C)C1 | 3980
